Assay results reported in PMC3744530, “CTA095, a Novel Etk and Src Dual Inhibitor, Induces Apoptosis in Prostate Cancer Cells and Overcomes Resistance to Src Inhibitors” (PLoS ONE, 2013).

Key:
[1] = test system: pEtk, pSrc, pSTAT3, Myc and BCL2 in PC3-AZD20 cells; test: Western blot of pEtk, pSrc, pStat3, Myc and BCL2; format: cell-based, human; settings: PC3-AZD20, 10 μM
Experimental: PC3-AZD20 cells were seeded at 10^6 cells/well in 6 well plates overnight. The cells were treated with AZD0530 or CTA095 at 10 μM. Apoptosis was analyzed using Annexin-V FITC apoptosis detection kit. The mRNA levels of Myc and BCL2 were measured using real-time PCR. pEtk, Etk, pSrc, Src, pStat3, Stat3, Myc and BCL2 levels were measured using the corresponding antibodies through a Western blot.
Figure 12 CTA095 induces apoptosis in Src inhibitor resistant prostate cancer cells through Myc and BCL2 inhibition. PC3-AZD20 (PC3 cell resistant to 20 μM AZD0530) cells were seeded at 10^6 cells/well in 6 well plates overnight. The cells were treated with AZD0530 or CTA095 at 10 μM. Apoptosis was analyzed using Annexin-V FITC apoptosis detection kit (A). The mRNA levels of Myc and BCL2 were measured using real-time PCR (B). pEtk, Etk, pSrc, Src, pStat3, Stat3, Myc and BCL2 levels were measured using the corresponding antibodies through Western blot (C). Columns, mean; bars, standard deviation, n = 3.

[2] = test system: PC3 cells stably transfected with GFP-LC3; set-up: method as in PMID 20811583; settings: cited from earlier work
PC3-AZD20 cells = test: MTT cell viability in Src inhibitor resistant cells; format: cell-based, human; settings: 72 h
Experimental: PC3 and PC3-AZD20 (PC3 cell resistant to 20 μM AZD0530, which is from AstraZeneca through MTA with Dr. Chris Evans) cells were seeded at 2000 cells/well in 96 well plates overnight. The cells were treated with AZD0530 or CTA095 at the indicated concentrations. Cell viability was measured using an MTT assay after 72 h.
Figure 11 CTA095 overcomes Src inhibitor resistance in prostate cancer cells. PC3 and PC3-AZD20 (PC3 cell resistant to 20 μM AZD0530) cells were seeded at 2000 cells/well in 96 well plates overnight. The cells were treated with AZD0530 or CTA095 at the indicated concentrations. Cell viability was measured using MTT assay after 72 h. Symbols, mean; bars, standard deviation, n = 3.

CN1CCN(CCOc2cc(OC3CCOCC3)c3c(Nc4c(Cl)ccc5c4OCO5)ncnc3c2)CC1 [AZD0530, reference compound]
pEtk, pSrc, pSTAT3, Myc and BCL2 protein levels [1]: pSrc and pSTAT3, but not c-myc and Bcl-2 were decreased | autophagy in prostate cancer cells [2]: induces autophagy | cell viability / sensitivity of PC3-AZD20 cells (PC3-AZD20 cells): resistant
